Assays:
[1] = Cytotoxicity against human HepG2(2.2.15) cells; type: cell-based
[2] = test system: Hepatitis B virus; assay: Antiviral activity against Hepatitis B virus infected in human HepG2(2.2.15) cells assessed as reduction in hepatitis B surface antigen release; type: functional, organism-based
[3] = test system: Hepatitis B virus; assay: Antiviral activity against Hepatitis B virus infected in human HepG2(2.2.15) cells assessed as reduction in hepatitis B e-antigen release; type: functional, organism-based
[4] = test system: Hepatitis B virus; assay: Antiviral activity against Hepatitis B virus infected in human HepG2(2.2.15) cells assessed as reduction in viral DNA replication; type: functional, organism-based
[5] = Selectivity index, ratio of CC50 for human HepG2(2.2.15) cells to IC50 for HBV by viral DNA replication detection assay; type: functional

Row | SMILES | IC50 [2] [µM] | IC50 [3] [µM] | IC50 [4] [µM] | CC50 [1] [µM] | Ratio CC50/IC50 [5]
1 | COC(=O)[C@@]1(C)CC[C@]2(C)CC[C@]3(C)C(=CC(=O)[C@@H]4[C@@]5(C)CC[C@H](O)C(C)(C)[C@@H]5CC[C@]43C)[C@@H]2C1 | > 1740 | > 1740 | > 444 | > 1740 | –
2 | CC1(C)[C@@H](O)CC[C@]2(C)[C@H]3C(=O)C=C4[C@@H]5C[C@@](C)(C(=O)OCc6cc(F)cc(F)c6)CC[C@]5(C)CC[C@@]4(C)[C@]3(C)CC[C@@H]12 | > 1230 | > 1230 | > 307 | > 1230 | –
3 | CC1(C)[C@@H](O)CC[C@]2(C)[C@H]3C(=O)C=C4[C@@H]5C[C@@](C)(C(=O)OCc6cc(C(F)(F)F)cc(C(F)(F)F)c6)CC[C@]5(C)CC[C@@]4(C)[C@]3(C)CC[C@@H]12 | > 1700 | > 1700 | > 426 | > 1700 | –
4 | CC1(C)[C@@H](O)CC[C@]2(C)[C@H]3CC=C4[C@@H]5C[C@@](C)(C(=O)OCc6ccc(Br)cc6F)CC[C@]5(C)CC[C@@]4(C)[C@]3(C)CC[C@@H]12 | > 1530 | > 1530 | > 382 | 1150 | –
5 | CCOC(=O)CCCOC(=O)[C@@]1(C)CC[C@]2(C)CC[C@]3(C)C(=CC[C@@H]4[C@@]5(C)CC[C@H](O)C(C)(C)[C@@H]5CC[C@]43C)[C@@H]2C1 | 638 | > 1170 | > 292 | 530 | –
6 | COc1cccc(/C=C/C(=O)O[C@H]2CC[C@]3(C)[C@H]4CC=C5[C@@H]6C[C@@](C)(C(=O)OCc7ccc(C(F)(F)F)cc7)CC[C@]6(C)CC[C@@]5(C)[C@]4(C)CC[C@H]3C2(C)C)c1 | > 899 | > 899 | > 225 | > 899 | –
7 | COc1cccc(/C=C/C(=O)O[C@H]2CC[C@]3(C)[C@H]4CC=C5[C@@H]6C[C@@](C)(C(=O)OCc7ccc(Br)cc7F)CC[C@]6(C)CC[C@@]5(C)[C@]4(C)CC[C@H]3C2(C)C)c1 | > 1000 | > 1000 | > 250 | > 1000 | –
8 | CC1(C)[C@@H](OC(=O)c2cc(=O)c3ccccc3o2)CC[C@]2(C)[C@H]3CC=C4[C@@H]5C[C@@](C)(C(=O)OCc6ccc(Br)cc6F)CC[C@]5(C)CC[C@@]4(C)[C@]3(C)CC[C@@H]12 | > 1080 | > 1080 | > 271 | > 1080 | –
9 | CCOC(=O)CCCOC(=O)[C@@]1(C)CC[C@]2(C)CC[C@]3(C)C(=CC[C@@H]4[C@@]5(C)CC[C@H](OC(=O)/C=C/c6cc(OC)c(OC)c(OC)c6)C(C)(C)[C@@H]5CC[C@]43C)[C@@H]2C1 | > 1230 | > 1230 | > 307 | > 1230 | –
10 | CCOC(=O)CCCOC(=O)[C@@]1(C)CC[C@]2(C)CC[C@]3(C)C(=CC[C@@H]4[C@@]5(C)CC[C@H](OC(=O)c6cc(=O)c7ccccc7o6)C(C)(C)[C@@H]5CC[C@]43C)[C@@H]2C1 | > 1180 | > 1180 | > 294 | > 1180 | –
11 | CCCCOC(=O)[C@@]1(C)CC[C@]2(C)CC[C@]3(C)C(=CC(=O)[C@@H]4[C@@]5(C)CC[C@H](O)C(C)(C)[C@@H]5CC[C@]43C)[C@@H]2C1 | > 986 | > 986 | > 247 | > 986 | –
12 | C=CCCOC(=O)[C@@]1(C)CC[C@]2(C)CC[C@]3(C)C(=CC(=O)[C@@H]4[C@@]5(C)CC[C@H](O)C(C)(C)[C@@H]5CC[C@]43C)[C@@H]2C1 | > 1750 | > 1750 | 332 | > 1750 | >5.3
13 | CCCCCCCCOC(=O)[C@@]1(C)CC[C@]2(C)CC[C@]3(C)C(=CC(=O)[C@@H]4[C@@]5(C)CC[C@H](O)C(C)(C)[C@@H]5CC[C@]43C)[C@@H]2C1 | > 1450 | > 1450 | > 362 | > 1450 | –
14 | CCCCCCCCCCOC(=O)[C@@]1(C)CC[C@]2(C)CC[C@]3(C)C(=CC(=O)[C@@H]4[C@@]5(C)CC[C@H](O)C(C)(C)[C@@H]5CC[C@]43C)[C@@H]2C1 | > 1030 | > 1030 | > 257 | > 1030 | –
15 | CC1(C)[C@@H](O)CC[C@]2(C)[C@H]3C(=O)C=C4[C@@H]5C[C@@](C)(C(=O)OC6CCC6)CC[C@]5(C)CC[C@@]4(C)[C@]3(C)CC[C@@H]12 | 810 | > 1810 | 89.5 | 742 | 8.3

Now from value to compound, other results behind:

Row | IC50 [2] [µM] | IC50 [3] [µM] | IC50 [4] [µM] | SMILES | CC50 [1] [µM] | Ratio CC50/IC50 [5]
16 | > 1500 | > 1500 | > 375 | CC1(C)[C@@H](O)CC[C@]2(C)[C@H]3CC=C4[C@@H]5C[C@@](C)(C(=O)OCc6ccc(C(F)(F)F)cc6)CC[C@]5(C)CC[C@@]4(C)[C@]3(C)CC[C@@H]12 | > 1500 | –
17 | > 987 | > 987 | > 247 | COc1cc(/C=C/C(=O)O[C@H]2CC[C@]3(C)[C@H]4CC=C5[C@@H]6C[C@@](C)(C(=O)OCc7ccc(C(F)(F)F)cc7)CC[C@]6(C)CC[C@@]5(C)[C@]4(C)CC[C@H]3C2(C)C)cc(OC)c1OC | > 987 | –
18 | > 1170 | > 1170 | > 293 | CC1(C)[C@@H](OC(=O)c2cc(=O)c3ccccc3o2)CC[C@]2(C)[C@H]3CC=C4[C@@H]5C[C@@](C)(C(=O)OCc6ccc(C(F)(F)F)cc6)CC[C@]5(C)CC[C@@]4(C)[C@]3(C)CC[C@@H]12 | > 1170 | –
19 | > 1030 | > 1030 | > 259 | COc1cc(/C=C/C(=O)O[C@H]2CC[C@]3(C)[C@H]4CC=C5[C@@H]6C[C@@](C)(C(=O)OCc7ccc(Br)cc7F)CC[C@]6(C)CC[C@@]5(C)[C@]4(C)CC[C@H]3C2(C)C)cc(OC)c1OC | 935 | –
20 | > 944 | > 944 | > 236 | CC1(C)[C@@H](OC(=O)c2cc(=O)c3ccccc3o2)CC[C@]2(C)[C@H]3CC=C4[C@@H]5C[C@@](C)(C(=O)OCC(N)=O)CC[C@]5(C)CC[C@@]4(C)[C@]3(C)CC[C@@H]12 | > 944 | –
21 | > 2310 | > 2310 | > 578 | C=CCOC(=O)[C@@]1(C)CC[C@]2(C)CC[C@]3(C)C(=CC(=O)[C@@H]4[C@@]5(C)CC[C@H](O)C(C)(C)[C@@H]5CC[C@]43C)[C@@H]2C1 | > 2310 | –
22 | > 1700 | > 1700 | 66.2 | CCCCCCOC(=O)[C@@]1(C)CC[C@]2(C)CC[C@]3(C)C(=CC(=O)[C@@H]4[C@@]5(C)CC[C@H](O)C(C)(C)[C@@H]5CC[C@]43C)[C@@H]2C1 | 175 | 2.6
23 | 678 | > 1100 | 67 | CC1(C)[C@@H](O)CC[C@]2(C)[C@H]3C(=O)C=C4[C@@H]5C[C@@](C)(C(=O)OCC6CC6)CC[C@]5(C)CC[C@@]4(C)[C@]3(C)CC[C@@H]12 | 696 | 10.4
24 | > 1910 | > 1910 | > 479 | CC1(C)[C@@H](O)CC[C@]2(C)[C@H]3C(=O)C=C4[C@@H]5C[C@@](C)(C(=O)OCC6CCOCC6)CC[C@]5(C)CC[C@@]4(C)[C@]3(C)CC[C@@H]12 | > 1910 | –
